What was measured:
DNA Ligase IV/XRCC4 = molecular target: T1, DNA Ligase IV/XRCC4 (Homo sapiens, UniProt P49917); experiment: Inhibition of end joining by purified DNA Ligase IV/XRCC4; format: biochemical; settings: for inhibition at 50 µM: Ligase IV; for Inhibition of end joining compared with control: 200 μM, purified Ligase IV/XRCC4; for Concentration from which inhibition of end joining was seen: dose titration with Ligase IV
T1 construct: made in house; host or cells: bacteria
Description: The compounds of Formula I were evaluated for their specific inhibition activity towards enzyme DNA Ligase IV. DNA Ligase IV/XRCC4 was purified from bacteria using Ni-NTA column (FIG. 2A), and used for evaluation of inhibition of end joining of the compounds (01-41) at 200 μM (FIGS. 2B, C and D). The compounds were incubated with purified Ligase IV/XRCC4 in suitable NHEJ buffer at 25° C. for 30 min, followed by addition of radiolabeled DNA, and further incubation for 1 h at 25° C. Products were purified using phenol: chloroform and run on denaturing PAGE.
Effects of these compounds on NHEJ and Ligase IV mediated joining were evaluated (FIG. 4A-K). The reactions were terminated by EDTA (10 mM), products were purified using phenol/chloroform, precipitated with chilled ethanol and glycogen, and resolved on 8% denaturing PAGE. The gel was dried, exposed, and signal was detected using phosphor Imager FLA9000 (Fuji, Japan), and quantified in MultiGauge software expressed as Photo Stimulated Luminescence Units (PSLU). Inhibition of end joining was reported at 200 μM and 100 μM, respectively for SCR116 and SCR132 (FIGS. 4A, B, C and D), with >50% inhibition at 200 and 100 μM concentrations, respectively. […] FIG. 4K depict the purification profile of Ligase IV and XRCC4. Further FIGS. 4L-M represent inhibition of end joining catalysed by (FIG. 4L) purified Ligase III/XRCCI in presence of SCR116 and SCR132 (50, 100, 200, 500, 1000 μM) and (FIG. 4M) by purified Ligase I in presence of increasing concentrations of SCR116 and SCR132 (10, 50, 100, 200, 500, 1000 μM).

Raji = experiment: Cytotoxicity in Raji; format: cell-based; settings: Homo sapiens, Raji; Table 2; read-out: IC50 in cancer cell lines, Raji
Description: (§1) Ligase IV specificity of the compounds of the present invention inside the cells were also determined using Ligase IV knock out (KO) cell line N114 compared to the wild type Nalm6 (Table 2, FIGS. 5C, D, E and F). […] Table 1 showing IC50 of SCR7 derivatives in cancer cell lines Nalm6 and HeLa. IC50 was calculated using GraphPad Prism software from the percentage of viable cells following treatment with the compounds at 48 h. Table 2 showing IC50 of SCR116 and SCR132 in a panel of 16 cancer cell lines.

CEM = experiment: Cytotoxicity in CEM; format: cell-based; settings: Homo sapiens, CCRF-CEM; Table 2; read-out: IC50 in cancer cell lines, CEM
Description: as §1

SUDHL8 = experiment: Cytotoxicity in SUDHL8; format: cell-based; settings: Homo sapiens, SU-DHL-8; Table 2; read-out: IC50 in cancer cell lines, SUDHL8
Description: as §1

LN229 = experiment: Cytotoxicity in LN229; format: cell-based; settings: Homo sapiens, LN-229; Table 2; read-out: IC50 in cancer cell lines, LN229
Description: as §1

53BP1 foci in HeLa cells = experiment: 53BP1 immunofluorescence in HeLa cells; format: cell-based; settings: alone or alongside radiation; 24 h
Description: FIG. 7(A-F) depicts evaluation of generation of double-strand breaks inside cells treated with compounds SCR116 and SCR132 alone or in combination, A. Immunofluorescence with 53BP1 in HeLa cells treated with increasing concentration of SCR116 (2 and 5 μM) and SCR132 (1 and 2 μM). Nucleus is stained in red using propidium iodide, while green signal represents 53BP1 foci (FITC). B. Quantification of 53BP1 foci inside HeLa cells treated with SCR116 and SCR132 for 24 h, as denoted using scatter plot. Significance was calculated using ANOVA in GraphPad Prism software (ns, not significant; *p<0.05, **p<0.005, ***p<0.0001). C-D. Bar graphs showing percentage of viable cells following treatment with the compounds alone, or in presence of γ-radiation (0.5 Gy) at 24 (C) and 48 h (D). 2 and 4 μM SCR116, and 1 and 2 μM SCR132 were used. E. Bar graph showing percentage of viable cells following treatment with SCR116 (0.375 μM) or SCR132 (0.125 μM) alone, or in presence of 0.25 μM etoposide at 48 h. F. Bar graph showing percentage of viable cells following treatment with SCR116 (0.375 μM) or SCR132 (0.125 μM) alone, or in presence of 0.375 μM 5-FU at 48 h, in accordance with an implementation of the present disclosure.

HeLa cells = experiment: Neutral comet assay in HeLa cells; format: cell-based; settings: 24 h; SCR116 5 μM, SCR132 2 μM; radiation 0.5 Gy; vs control
Description: FIG. 8(A-B) depicts accumulation of DSBs inside cells following treatment with the compounds. A. Representative images for HeLa cells subjected to neutral comet assay following treatment with SCR116 and SCR132 for 24 h. […] FIG. 8C, D are representative images for Nalm6 cells (C) and N114 cells (D) following treatment with SCR116 and SCR132 for 24 h. and FIG. 8E, F are scatter plot depicting quantification of percentage of 53BP1 foci treated with SCR116 (2, 5 μM) and SCR132 (1, 2 μM) in Nalm6 and N114.

[1] = system: Dalton's Lymphoma (DLA) tumor; experiment: Mice allograft model, Dalton's Lymphoma (DLA); format: in vivo; settings: for Tumor burden: oral, 15 and 25 mg/kg, pilot
Description: The effect of oral dose of the compounds of the present disclosure on mice Erlich Ascites Carcinoma (EAC) and Dalton's Lymphoma (DLA) tumors were also evaluated (FIGS. 10A-F).

[2] = 10 days dose ranging toxicity study; format: in vivo, Swiss albino mice; settings: for Hemoglobin, MCHC, total leukocyte count and platelets: after 10 days of dose-ranging study; for Body weight: oral 80, 160 and 320 mg/kg b.wt., male and female, days 1, 8, 15, 22
Description: FIG. 12 depicts 10 days dose ranging toxicity studies of SCR116 and SCR132 (A) Body weight analyses of mice on 1, 8, 15 and 22 days after oral administration of low, medium and high concentrations of SCR116 and SCR132 (80, 160 and 320 mg/kg b.wt. respectively) in male. Mice treated with methyl cellulose served as vehicle control; and (B) Body weight analyses of mice on 1, 8, 15 and 22 days after oral administration of SCR116 and SCR132 (80, 160 and 320 mg/kg b.wt. respectively) in female.
FIG. 13 depicts the blood parameters analysis of Swiss albino mice after 10 days of dose-ranging study after treating with SCR116 and SCR132. A. RBC (n=3). B. Hemoglobin (n=3). C. MCHC (n=3). D. Total leukocyte count (n=3). E. Platelet count (n=3) (ns: not significant, *p<0.05: **p<0.005).

T1 sequence (P49917 whole entry): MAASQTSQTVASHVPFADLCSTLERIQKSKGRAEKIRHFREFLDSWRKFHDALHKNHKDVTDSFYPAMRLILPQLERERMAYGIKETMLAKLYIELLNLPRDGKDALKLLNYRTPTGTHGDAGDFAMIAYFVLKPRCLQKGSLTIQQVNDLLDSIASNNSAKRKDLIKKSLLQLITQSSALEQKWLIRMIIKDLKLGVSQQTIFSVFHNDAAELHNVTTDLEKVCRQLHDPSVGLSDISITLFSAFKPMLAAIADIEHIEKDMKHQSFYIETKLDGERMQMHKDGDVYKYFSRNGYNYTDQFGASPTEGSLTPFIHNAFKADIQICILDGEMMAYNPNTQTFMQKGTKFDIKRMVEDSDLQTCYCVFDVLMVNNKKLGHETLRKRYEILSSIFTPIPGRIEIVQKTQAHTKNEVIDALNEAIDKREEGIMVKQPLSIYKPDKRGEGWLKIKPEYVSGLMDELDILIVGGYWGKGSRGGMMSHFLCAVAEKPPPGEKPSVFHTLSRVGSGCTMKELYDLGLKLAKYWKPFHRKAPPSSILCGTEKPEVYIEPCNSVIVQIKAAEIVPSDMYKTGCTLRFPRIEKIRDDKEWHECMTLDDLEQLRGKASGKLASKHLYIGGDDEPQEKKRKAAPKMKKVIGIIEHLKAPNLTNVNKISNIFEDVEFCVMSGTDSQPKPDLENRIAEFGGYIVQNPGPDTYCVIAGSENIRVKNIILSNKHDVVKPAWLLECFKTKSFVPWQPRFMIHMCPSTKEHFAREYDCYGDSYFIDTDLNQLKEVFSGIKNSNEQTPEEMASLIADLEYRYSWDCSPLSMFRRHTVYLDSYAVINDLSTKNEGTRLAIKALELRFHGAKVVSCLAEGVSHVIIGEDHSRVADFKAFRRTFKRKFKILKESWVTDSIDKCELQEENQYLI
T1 sequence (Q13426 whole entry partner): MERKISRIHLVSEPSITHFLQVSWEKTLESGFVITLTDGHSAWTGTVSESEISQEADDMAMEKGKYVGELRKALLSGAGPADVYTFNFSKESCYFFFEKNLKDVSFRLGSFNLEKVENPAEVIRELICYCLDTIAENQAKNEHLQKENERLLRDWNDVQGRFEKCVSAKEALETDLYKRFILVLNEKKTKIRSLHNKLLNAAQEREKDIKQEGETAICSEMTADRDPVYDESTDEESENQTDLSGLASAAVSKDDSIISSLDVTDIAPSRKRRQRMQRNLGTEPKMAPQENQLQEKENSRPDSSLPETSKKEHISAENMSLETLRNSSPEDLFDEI

Structure (SMILES)	inhibition at 50 µM (DNA Ligase IV/XRCC4)	Inhibition of end joining compared with control (DNA Ligase IV/XRCC4)	Concentration from which inhibition of end joining was seen (DNA Ligase IV/XRCC4)	IC50 (Raji)	IC50 (CEM)	IC50 (SUDHL8)	IC50 (LN229)	DNA damage marker 53BP1 (53BP1 foci in HeLa cells)	DNA in the tail of the comet (HeLa cells)	Tumor burden [1]	Tumor size ([1]; selected oral dose 10 mg/kg)	Hemoglobin, MCHC, total leukocyte count and platelets [2]	RBC count ([2]; low doses, values still within the normal range)	Body weight [2]	Tumor size ([1]; selected oral dose 15 mg/kg)
Nc1nc(S)nc(O)c1/N=C/c1ccc([N+](=O)[O-])s1 [Compound 16, (E)-6-amino-2-mercapto-5-(((5-nitrothiophen-2-yl)methylene)amino)pyrimidin-4-ol]	> 50%	significant inhibition of end joining	5 µM	4.37 µM	5.77 µM	0.685 µM	5.6 µM	increase in DNA damage marker 53BP1	increased amount of DNA in the tail of the comet	reduced tumor burden	significant reduction in tumor size	no significant difference in hemoglobin, MCHC, total leukocyte count and platelets	significant difference in RBC count	no significant change in body weight	
Nc1nc(S)nc(O)c1/N=C/c1sc(Cl)nc1Cl [Compound 32, (E)-6-amino-5-(((2,4-dichlorothiazol-5-yl)methylene)amino)-2-mercaptopyrimidin-4-ol]	> 50%	significant inhibition of end joining	10 µM	1.59 µM	3.83 µM	0.81 µM	7.7 µM	increase in DNA damage marker 53BP1	increased amount of DNA in the tail of the comet	reduced tumor burden		no significant difference in hemoglobin, MCHC, total leukocyte count and platelets		no significant change in body weight	significant reduction in tumor size
